In patent US20250346599A1, “TRICYCLIC PHTHALAZINONE PARP INHIBITORS AND METHODS OF USE” (Valo Health, Inc., priority 2022, published 2025):

Columns and labels:
[1] = literature statement; cited from earlier work
PARP1 enzyme = PARP1 enzyme (Homo sapiens (Human), UniProt P09874); assay: PARP Mass Spectroscopy Assay (PARP1 enzymatic assay, nicotinamide detection); format: biochemical; settings: 5 nM PARP1, 5 uM β-NAD, 60 min at RT, NAM by mass spectrometry
From the text: Materials and Reagents: The PARP1 enzyme was purchased from BPS Bioscience (cat #80501). Tris-HCl, pH 8.0 was purchased from Corning (cat #46-031-CM). Magnesium chloride was purchased from Thermo Fisher Scientific (previously Honeywell Fluka, cat #63020-1L). All other assay components, activated DNA (cat #D4522), core histones (cat #SRP6590), β-Nicotinamide adenine dinucleotide (β-NAD—cat #N8285), 3ABA PARP1 small molecule inhibitor (from the PARP1 Enzyme Activity Assay kit, cat #17-10149), Sodium Chloride (NaCl, cat #56546-1L), Triton X-100 (cat #93443), Dithiothreitol (DTT, cat #43816-250 ML) were all purchased from Millipore Sigma.
Assay Buffer: The assay buffer includes the following reagents: 50 mM Tris-HCl pH 8.0, 50 mM NaCl, 10 mM, MgCl2, 0.01% Triton X-100, and 1 mM DTT.
PARP1 enzymatic assays were performed in 384-well plates in a total volume of 20 μL in the assay buffer. For concentration response curves, compounds were serially diluted 3-fold from 2 mM highest concentration […] to generate a 10-point curve, and 125 nL was transferred to the assay plate using the Echo acoustic dispenser for a final concentration range of 26.6 μM to […] in 10 μL reaction. Five microliters of 10 nM PARP1 enzyme and 100 nM core histones (2×) mix were added to the assay plates and pre-incubated for 30 mins at room temperature (RT). The reaction was initiated by the addition of a 5 μL of 10 uM β-NAD plus 0.02 mg/mL activated DNA (2×) mix. The reaction is incubated for 60 min at RT. The final concentration of the PARP1 enzyme and substrate concentrations were 5 nM and 5 uM, respectively. The positive control (high signal) and negative control (low signal) wells had 125 nL of DMSO in place of compounds. After the incubation is complete, the reaction is stopped by the addition of 10 μL of 10 uM of the 3ABA PARP1 inhibitor, incubated for 5 min at RT, and placed in the −80 C freezer for shipment to the Valo Health site in Branford Connecticut where mass spectrometry will be used to directly detect quantities of nicotinamide (NAM).
The percent inhibition of enzyme activity was calculated according to the following equation: […]
The values of Ssample, Shigh, and Slow in the equation refer to the NAM concentration detected in the assay wells, high control wells, and low control wells, respectively. To determine inhibitor IC50 values, % inhibition of the CRCs (concentration response curves) was fitted to the standard single-site four-parameter logistic equation.

[2] = target: human MDR1 (P-glycoprotein; P-gp) (Homo sapiens (Human), UniProt P08183); assay: bi-directional MDCK-MDR1 permeability assay; format: in vitro ADME; settings: for MDCK-MDR1 Papp A→B (10^−6 cm/s) / Papp A→B: apical to basolateral direction; for MDCK-MDR1 ER / efflux ratio: efflux ratio B→A/A→B; for Papp A→B: dog; for Papp A→B / efflux ratio: MDCK-MDR1; for efflux ratio: human, read-out: MDCK-MDR1 ER
From the text: The bi-directional assay containing a Mandin Darby canine kidney (MDCK) cell line transfected with human MDR1 gene (P-glycoprotein; P-gp) designed to overexpress the MDR1 efflux transporter, a major efflux transporter at the blood brain barrier (BBB), uses an established method that measures the rate of flux of a compound across polarized cell monolayers. As well appreciated in the art, the data generated from the MDCK-MDR1 permeability assay may be used to predict in vivo absorption of drugs. The bi-directional MDCK-MDR1 permeability assay can identify and quantify levels of active efflux. Screening compounds in both the apical to basolateral direction (A→B) and basolateral to apical direction (B→A) across the cell monolayer provides a ratio of B→A/A→B (efflux ratio; “ER”). Unlike the Caco-2 assay, the MDCK-MDR1 assay is not subject to potential efflux interference by breast cancer resistance protein (BCRP). […] The data may further be used to predict blood brain barrier (BBB) permeability via calculation from the data of log(permeability-surface area product) (“log PS”), well-understood to be predictive of the in vivo log([brain concentration]/[plasma concentration]).

Sequence of PARP1 enzyme (P09874 whole entry): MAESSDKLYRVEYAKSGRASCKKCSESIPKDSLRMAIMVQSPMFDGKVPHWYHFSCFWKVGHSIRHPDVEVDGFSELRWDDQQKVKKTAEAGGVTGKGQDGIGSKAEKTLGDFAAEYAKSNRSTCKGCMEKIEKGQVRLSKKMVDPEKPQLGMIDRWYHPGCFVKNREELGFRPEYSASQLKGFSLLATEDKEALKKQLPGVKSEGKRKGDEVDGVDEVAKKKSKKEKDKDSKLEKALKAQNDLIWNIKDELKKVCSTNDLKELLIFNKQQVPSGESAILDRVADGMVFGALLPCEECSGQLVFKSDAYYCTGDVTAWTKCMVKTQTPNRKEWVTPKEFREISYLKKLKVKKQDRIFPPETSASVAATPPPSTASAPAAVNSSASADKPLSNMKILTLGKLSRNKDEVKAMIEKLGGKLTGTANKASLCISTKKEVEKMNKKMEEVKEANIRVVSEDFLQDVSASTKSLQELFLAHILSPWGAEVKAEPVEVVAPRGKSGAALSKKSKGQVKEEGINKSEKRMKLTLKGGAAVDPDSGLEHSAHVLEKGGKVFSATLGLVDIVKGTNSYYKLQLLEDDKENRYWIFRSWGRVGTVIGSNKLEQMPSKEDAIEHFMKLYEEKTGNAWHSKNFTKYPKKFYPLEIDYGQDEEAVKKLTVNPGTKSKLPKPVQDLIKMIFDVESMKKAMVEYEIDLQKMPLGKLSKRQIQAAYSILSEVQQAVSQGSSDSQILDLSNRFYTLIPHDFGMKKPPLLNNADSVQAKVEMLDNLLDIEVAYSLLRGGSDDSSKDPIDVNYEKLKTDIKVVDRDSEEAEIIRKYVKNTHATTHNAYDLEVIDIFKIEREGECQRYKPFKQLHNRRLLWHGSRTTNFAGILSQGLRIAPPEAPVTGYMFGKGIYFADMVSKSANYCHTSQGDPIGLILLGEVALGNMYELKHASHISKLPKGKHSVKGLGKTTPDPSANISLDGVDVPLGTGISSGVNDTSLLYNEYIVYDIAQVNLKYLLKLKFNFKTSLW
Sequence of human MDR1 (P-glycoprotein; P-gp) (P08183 whole entry): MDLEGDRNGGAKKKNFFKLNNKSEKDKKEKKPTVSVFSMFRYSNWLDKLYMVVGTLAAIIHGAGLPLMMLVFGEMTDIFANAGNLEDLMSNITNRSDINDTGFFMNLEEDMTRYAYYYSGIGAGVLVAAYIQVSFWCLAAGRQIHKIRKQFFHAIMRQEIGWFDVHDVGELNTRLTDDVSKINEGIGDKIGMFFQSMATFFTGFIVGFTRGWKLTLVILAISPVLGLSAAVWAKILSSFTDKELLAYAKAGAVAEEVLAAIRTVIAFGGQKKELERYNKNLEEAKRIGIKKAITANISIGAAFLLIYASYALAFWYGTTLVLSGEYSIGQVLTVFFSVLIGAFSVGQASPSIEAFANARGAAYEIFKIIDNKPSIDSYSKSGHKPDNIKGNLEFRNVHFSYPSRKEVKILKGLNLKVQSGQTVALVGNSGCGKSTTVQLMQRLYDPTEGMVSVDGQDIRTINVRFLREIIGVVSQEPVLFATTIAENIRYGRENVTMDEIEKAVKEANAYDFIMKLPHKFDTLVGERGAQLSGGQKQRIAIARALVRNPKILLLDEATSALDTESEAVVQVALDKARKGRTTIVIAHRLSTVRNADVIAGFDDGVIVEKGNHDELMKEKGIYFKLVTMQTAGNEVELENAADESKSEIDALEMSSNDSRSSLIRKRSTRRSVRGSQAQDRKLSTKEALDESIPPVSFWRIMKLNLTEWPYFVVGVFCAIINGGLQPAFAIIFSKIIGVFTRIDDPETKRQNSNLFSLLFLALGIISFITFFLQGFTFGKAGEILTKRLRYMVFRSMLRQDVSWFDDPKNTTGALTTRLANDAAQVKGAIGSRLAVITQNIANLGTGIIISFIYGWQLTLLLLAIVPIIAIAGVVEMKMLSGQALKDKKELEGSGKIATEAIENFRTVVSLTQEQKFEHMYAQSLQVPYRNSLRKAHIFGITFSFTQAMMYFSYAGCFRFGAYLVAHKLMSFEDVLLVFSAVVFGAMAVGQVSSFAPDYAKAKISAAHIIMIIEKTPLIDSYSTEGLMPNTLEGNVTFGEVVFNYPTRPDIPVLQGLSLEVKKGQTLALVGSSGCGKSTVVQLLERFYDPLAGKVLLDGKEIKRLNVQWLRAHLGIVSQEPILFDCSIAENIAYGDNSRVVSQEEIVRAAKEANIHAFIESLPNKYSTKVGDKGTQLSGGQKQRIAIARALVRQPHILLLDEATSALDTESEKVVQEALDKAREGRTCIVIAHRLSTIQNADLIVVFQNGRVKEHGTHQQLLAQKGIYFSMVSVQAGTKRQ

## O=C(c1cc(Cc2n[nH]c(=O)c3ccccc23)ccc1F)N1CCN(C(=O)C2CC2)CC1 [olaparib]
[1]
  central nervous system (CNS) penetration: do not have good central nervous system (CNS) penetration

## CC(C)[C@@H]1Nc2cc(F)cc3c(=O)[nH]nc(c23)[C@H]1c1c(F)cc(F)cc1F [Compound 0221B]
PARP1 enzyme
  IC50: 19 nM
[2]
  MDCK-MDR1 Papp A→B (10^−6 cm/s): 8.48 10^−6 cm/s
  MDCK-MDR1 ER: 1.15

## O=c1[nH]nc2c3c(cc(F)cc13)N[C@@H]([C@@H]1CCOC1)[C@@H]2c1ccccc1Cl [Compound 0121D]
PARP1 enzyme
  IC50: 43 nM
[2]
  MDCK-MDR1 Papp A→B (10^−6 cm/s): 3.66 10^−6 cm/s
  MDCK-MDR1 ER: 5.77

## O=c1[nH]nc2c3c(cc(F)cc13)NC[C@H]2c1ccccn1 [Compound 0211A]
PARP1 enzyme
  IC50: 27 nM
[2]
  MDCK-MDR1 Papp A→B (10^−6 cm/s): 9.25 10^−6 cm/s
  MDCK-MDR1 ER: 2.67

## C[C@@H]1Nc2cc(F)cc3c(=O)[nH]nc(c23)[C@@H]1[C@H]1CCCCN1C [Compound 0199C]
PARP1 enzyme
  IC50: 38 nM
[2]
  MDCK-MDR1 Papp A→B (10^−6 cm/s): 0.506 10^−6 cm/s
  MDCK-MDR1 ER: 17.9

## O=c1[nH]nc2c3c(cc(F)cc13)N[C@H](C1CC1)[C@H]2c1ccccc1Cl [Compound 0207B, (11R,12R)-12-(2-chlorophenyl)-11-cyclopropyl-7-fluoro-2,3,10-triazatricyclo[7.3.1.0^{5,13}]trideca-1,5(13),6,8-tetraen-4-one]
PARP1 enzyme
  IC50: 6 nM
[2]
  MDCK-MDR1 Papp A→B (10^−6 cm/s): 14.4 10^−6 cm/s
  MDCK-MDR1 ER: 0.532

## O=c1[nH]nc2c3c(cc(F)cc13)NC[C@@H]2c1ccccc1Cl [Compound 0120B, (S)-9-(2-chlorophenyl)-5-fluoro-2,7,8,9-tetrahydro-3H-pyrido[4,3,2-de]phthalazin-3-one]
PARP1 enzyme
  IC50: 47 nM
[2]
  Papp A→B: 13.3 ×10⁻⁶ cm/s
  efflux ratio: 0.612

## C[C@H]1Nc2cc(F)cc3c(=O)[nH]nc(c23)[C@@H]1c1ccc(Cl)c(F)c1 [Compound 0195A, (8R,9R)-9-(4-chloro-3-fluorophenyl)-5-fluoro-8-methyl-2,7,8,9-tetrahydro-3H-pyrido[4,3,2-de]phthalazin-3-one]
PARP1 enzyme
  IC50: 21 nM
[2]
  Papp A→B: 13.9 ×10⁻⁶ cm/s
  efflux ratio: 0.699

## O=c1[nH]nc2c3c(cc(F)cc13)N[C@@H]([C@H]1CCOC1)[C@@H]2c1ccc(F)cc1F [Compound 0115C]
PARP1 enzyme
  IC50: 252 nM
[2]
  MDCK-MDR1 Papp A→B (10^−6 cm/s): 4.82 10^−6 cm/s
  MDCK-MDR1 ER: 4.67

## C[C@@H]1Nc2cc(F)cc3c(=O)[nH]nc(c23)[C@H]1c1ccc(Cl)c(F)c1 [Compound 0195B, (8S,9S)-9-(4-chloro-3-fluorophenyl)-5-fluoro-8-methyl-2,7,8,9-tetrahydro-3H-pyrido[4,3,2-de]phthalazin-3-one]
PARP1 enzyme
  IC50: 26 nM
[2]
  Papp A→B: 16.4 ×10⁻⁶ cm/s
  efflux ratio: 0.691

## CN1CCC([C@@H]2Nc3cc(F)cc4c(=O)[nH]nc(c34)[C@H]2c2ccccc2Cl)CC1 [Compound 0116B, (8S,9S)-9-(2-chlorophenyl)-5-fluoro-8-(1-methylpiperidin-4-yl)-2,7,8,9-tetrahydro-3H-pyrido[4,3,2-de]phthalazin-3-one]
PARP1 enzyme
  IC50: 123 nM
[2]
  Papp A→B: 0.471 ×10⁻⁶ cm/s
  efflux ratio: 30.8

## O=c1[nH]nc2c3c(cc(F)cc13)NC[C@H]2c1ccc(Cl)c(F)c1 [Compound 0188A, (R)-9-(4-chloro-3-fluorophenyl)-5-fluoro-2,7,8,9-tetrahydro-3H-pyrido[4,3,2-de]phthalazin-3-one]
PARP1 enzyme
  IC50: 28 nM
[2]
  Papp A→B: 11.7 ×10⁻⁶ cm/s
  efflux ratio: 0.541

## C[C@H]1Nc2cc(F)cc3c(=O)[nH]nc(c23)[C@@H]1c1ccc(F)cc1F [Compound 0174A, (8R,9R)-9-(2,4-difluorophenyl)-5-fluoro-8-methyl-2,7,8,9-tetrahydro-3H-pyrido[4,3,2-de]phthalazin-3-one]
PARP1 enzyme
  IC50: 36 nM
[2]
  Papp A→B: 14 ×10⁻⁶ cm/s
  efflux ratio: 0.532

## O=c1[nH]nc2c3c(cc(F)cc13)N[C@H]([C@@H]1CCOC1)[C@H]2c1ccc(F)cc1F [Compound 0115B]
PARP1 enzyme
  IC50: 190 nM
[2]
  MDCK-MDR1 Papp A→B (10^−6 cm/s): 9.05 10^−6 cm/s
  MDCK-MDR1 ER: 2.04

## C[C@H]1Nc2cc(F)cc3c(=O)[nH]nc(c23)[C@@H]1c1ccc(C#N)c(F)c1 [Compound 0193A]
PARP1 enzyme
  IC50: 24 nM
[2]
  MDCK-MDR1 Papp A→B (10^−6 cm/s): 5.83 10^−6 cm/s
  MDCK-MDR1 ER: 2.63

## O=c1[nH]nc2c3c(cc(F)cc13)NC[C@H]2c1ccccc1Cl [Compound 0120A, (R)-9-(2-chlorophenyl)-5-fluoro-2,7,8,9-tetrahydro-3H-pyrido[4,3,2-de]phthalazin-3-one]
PARP1 enzyme
  IC50: 87 nM
[2]
  Papp A→B: 12.9 ×10⁻⁶ cm/s
  efflux ratio: 0.655

## C[C@H]1Nc2cc(F)cc3c(=O)[nH]nc(c23)[C@@H]1c1ccccc1Cl [Compound 0172A, (8R,9R)-9-(2-chlorophenyl)-5-fluoro-8-methyl-2,7,8,9-tetrahydro-3H-pyrido[4,3,2-de]phthalazin-3-one]
PARP1 enzyme
  IC50: 10 nM
[2]
  Papp A→B: 11 ×10⁻⁶ cm/s
  efflux ratio: 0.658

## C[C@H]1Nc2cc(F)cc3c(=O)[nH]nc(c23)[C@@H]1c1ccc(Cl)cc1F [Compound 0196A]
PARP1 enzyme
  IC50: 9 nM
[2]
  MDCK-MDR1 Papp A→B (10^−6 cm/s): 13 10^−6 cm/s
  MDCK-MDR1 ER: 0.537

## O=c1[nH]nc2c3c(cc(F)cc13)NCC2c1ccc(F)cc1F (stereo not shown) [Compound 0114-5, 9-(2,4-difluorophenyl)-5-fluoro-2,7,8,9-tetrahydro-3H-pyrido[4,3,2-de]phthalazin-3-one]
PARP1 enzyme
  IC50: 32 nM
[2]
  Papp A→B: 16.1 ×10⁻⁶ cm/s
  efflux ratio: 0.995

## O=c1[nH]nc2c3c(cc(F)cc13)N[C@H](C1CCOCC1)[C@H]2c1ccccc1Cl [Compound 0210B, (11R,12R)-12-(2-chlorophenyl)-7-fluoro-11-(oxan-4-yl)-2,3,10-triazatricyclo[7.3.1.0^{5,13}]trideca-1,5(13),6,8-tetraen-4-one]
PARP1 enzyme
  IC50: 142 nM
[2]
  MDCK-MDR1 Papp A→B (10^−6 cm/s): 2.27 10^−6 cm/s
  MDCK-MDR1 ER: 9.91

## O=c1[nH]nc2c3c(cc(F)cc13)N[C@@H](C1CCOCC1)[C@@H]2c1ccccc1Cl [Compound 0210A, (11S,12S)-12-(2-chlorophenyl)-7-fluoro-11-(oxan-4-yl)-2,3,10-triazatricyclo[7.3.1.0^{5,13}]trideca-1,5(13),6,8-tetraen-4-one]
PARP1 enzyme
  IC50: 106 nM
[2]
  MDCK-MDR1 Papp A→B (10^−6 cm/s): 2.91 10^−6 cm/s
  MDCK-MDR1 ER: 6.97

## CC(=O)N1CCC([C@@H]2Nc3cc(F)cc4c(=O)[nH]nc(c34)[C@H]2c2ccccc2Cl)CC1 [Compound 0223B]
PARP1 enzyme
  IC50: 9 nM
[2]
  MDCK-MDR1 Papp A→B (10^−6 cm/s): 0.685 10^−6 cm/s
  MDCK-MDR1 ER: 37

## CNCc1ccc(-c2[nH]c3cc(F)cc4c3c2CCNC4=O)cc1 [rucaparib]
[1]
  central nervous system (CNS) penetration: do not have good central nervous system (CNS) penetration

## O=c1[nH]nc2c3c(cc(F)cc13)NCC2c1ccc(Cl)c(F)c1 (stereo not shown) [Compound 0188-5, 9-(4-chloro-3-fluorophenyl)-5-fluoro-2,7,8,9-tetrahydro-3H-pyrido[4,3,2-de]phthalazin-3-one]
PARP1 enzyme
  IC50: 42 nM
[2]
  Papp A→B: 11.7 ×10⁻⁶ cm/s
  efflux ratio: 0.522

## NC(=O)c1cccc2cn(-c3ccc([C@@H]4CCCNC4)cc3)nc12 [niraparib]
[1]
  central nervous system (CNS) penetration: do not have good central nervous system (CNS) penetration

## O=c1[nH]nc2c3c(cc(F)cc13)N[C@@H](C1CCC(F)(F)CC1)[C@@H]2c1ccccc1Cl [Compound 0213B]
PARP1 enzyme
  IC50: 130 nM
[2]
  MDCK-MDR1 Papp A→B (10^−6 cm/s): 4.93 10^−6 cm/s
  MDCK-MDR1 ER: 3.33

## Cn1ncnc1[C@H]1c2n[nH]c(=O)c3cc(F)cc(c23)N[C@@H]1c1ccc(F)cc1 [talazoparib]
[1]
  central nervous system (CNS) penetration: do not have good central nervous system (CNS) penetration
